Results taken from patent EP4772505A1, “COMPOUND FOR DEGRADING ANDROGEN RECEPTOR AND MEDICAL USE THEREOF” (Ubix Therapeutics, Inc., priority 2023, dated 2025).

What follows are molecules tested against T1, Androgen Receptor (AR) (Homo sapiens, UniProt P10275) (assay: Pharmacodynamic efficacy: AR degradation in tumor of VCaP xenograft model after oral administration). Conditions: 10 mg/kg orally once daily for three days, tumor collected 6 hours after final administration.
T1 sequence (P10275 1-920): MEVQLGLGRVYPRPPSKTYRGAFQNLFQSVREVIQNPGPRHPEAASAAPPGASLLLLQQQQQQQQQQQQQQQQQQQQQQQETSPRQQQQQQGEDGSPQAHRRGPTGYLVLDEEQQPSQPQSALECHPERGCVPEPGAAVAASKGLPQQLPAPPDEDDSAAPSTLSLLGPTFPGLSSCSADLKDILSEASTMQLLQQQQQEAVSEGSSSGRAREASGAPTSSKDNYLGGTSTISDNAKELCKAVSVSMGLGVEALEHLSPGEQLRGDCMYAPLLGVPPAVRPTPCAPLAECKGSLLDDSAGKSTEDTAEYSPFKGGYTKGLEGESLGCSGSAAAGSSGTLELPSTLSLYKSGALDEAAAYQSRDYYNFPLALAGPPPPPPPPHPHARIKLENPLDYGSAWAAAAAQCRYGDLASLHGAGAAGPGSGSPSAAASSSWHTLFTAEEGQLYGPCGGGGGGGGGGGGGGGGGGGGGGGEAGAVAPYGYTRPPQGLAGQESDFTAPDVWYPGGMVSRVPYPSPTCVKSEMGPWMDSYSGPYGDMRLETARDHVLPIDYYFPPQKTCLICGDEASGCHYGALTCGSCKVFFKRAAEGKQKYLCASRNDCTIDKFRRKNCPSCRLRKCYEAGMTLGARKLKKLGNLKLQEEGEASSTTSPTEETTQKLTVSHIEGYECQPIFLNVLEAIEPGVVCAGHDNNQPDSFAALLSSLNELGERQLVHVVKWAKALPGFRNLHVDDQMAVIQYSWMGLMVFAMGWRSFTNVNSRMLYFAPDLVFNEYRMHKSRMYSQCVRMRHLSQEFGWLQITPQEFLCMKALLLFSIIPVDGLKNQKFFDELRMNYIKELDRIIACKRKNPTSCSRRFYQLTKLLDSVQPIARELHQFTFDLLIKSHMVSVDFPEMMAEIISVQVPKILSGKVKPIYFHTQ
Assay type: in vivo, CB17/SCID mice
Parameters: After sacrifice, tumor tissue was collected, washed in PBS, and stored at -80°C; from tissue; host or cells: VCaP xenograft tumour from CB17/SCID mice
Experimental: The protocol for the creation of a xenograft model and pharmacodynamic experiments using VCaP cells was as follows.
[Cell Culture] VCaP cells were resuspended at a density of 4 x 10^5/mL in a mixture of DMEM MEDIUM (Hyclone, SH30243.01), 10% FBS (Hyclone, SV30207.02), 1% Penicillin-streptomycin (Welgene, LS 202-02), and 1x Non-essential amino acid solution (100x) (Sigma, M7145-100mL). 50 mL of the cells were seeded into CELLBIND cell culture flasks (150 cm^2) (Corning, 3291) and cultured for 5 days.
[Xenotransplantation] The media was removed from the flask containing cultured VCaP cells and washed with 10 mL of PBS (Welgene, LB001-02). After removing the PBS, 2 mL of 1x 0.05% Trypsin-EDTA (Welgene, LS015-01) was added and treated in a cell incubator for 3 minutes. Then, 10 mL of media was added, pipetted, and placed in a 50 mL tube. The pellets were collected by centrifugation at 500 g for 5 minutes. The collected pellets were washed once more with 20 mL of PBS. The washed pellets were collected by centrifugation at 500 g for 5 minutes. The PBS was removed, and 500 µL of HBSS (Gibco, 14025092) was added and pipetted. After diluting 100-fold in HBSS and measuring the cell count, the concentration was calculated as 3 x 10^6/50 µL/mouse, diluted in HBSS, and stored in an ice bucket. An equal volume of matrigel (R&D system, 3432-005-01) was added to the stored cells, homogenized by pipetting, and then 100 µL per mouse was inoculated subcutaneously into the right flank of CB17/SCID mice.
[Measurement of tumor size and division into groups] After 2-3 weeks of inoculation with cancer cells, the transplanted cancer cells grew and were measured in size using a caliper. The measured tumor size was calculated as [long axis x short axis^2 x 0.5]. When the tumor size exceeded approximately […], the experimental animals were divided into groups based on the average tumor size and the concentration of the drug to be administered. The groups always included a group containing only the solvent (vehicle) without the drug.
[Drug Preparation and Administration] The drug was dissolved in a solvent and orally administered to each experimental animal in a volume of 200 µL (approximately 8 mL/kg). The solvent composition was 3% DMSO (Sigma, D8418), 10% Cremophor EL (Sigma, C5135), 20% PEG400 (Sigma, 06855-1KG), and 67% distilled water. The preparation method was as follows. Depending on the drug concentration (e.g., 10 or 30 mg/kg), each drug was weighed and dissolved in DMSO corresponding to 3% of the total solvent volume. […]
[Cancer Tissue Extraction] […] Changes in tumor size were measured during the prescribed administration period, and the mice were sacrificed 6 hours after the final administration. […]

| Structure (SMILES) | AR degradation in tumor (%) |
| --- | --- |
| N#Cc1ccc(N2CCC(C(=O)Nc3ccc(OC4CCN(CC5CCN(c6ccc(NC7CCC(=O)NC7=O)cc6F)CC5)CC4)cn3)CC2)cc1C(F)(F)F (stereo not shown) [Example 1, 1-(4-cyano-3-(trifluoromethyl)phenyl)-N-(5-((1-((1-(4-((2,6-dioxopiperidin-3-yl)amino)-2-fluorophenyl)piperidin-4-yl)methyl)piperidin-4-yl)oxy)pyridin-2-yl)piperidine-4-carboxamide] | 86 |
| N#Cc1ccc(N2CCC(C(=O)Nc3ccc(OC4CCN(CC5CCN(c6ccc(N[C@H]7CCC(=O)NC7=O)cc6F)CC5)CC4)cn3)CC2)cc1C(F)(F)F [Example 2, (S)-1-(4-cyano-3-(trifluoromethyl)phenyl)-N-(5-((1-((1-(4-((2,6-dioxopiperidin-3-yl)amino)-2-fluorophenyl)piperidin-4-yl)methyl)piperidin-4-yl)oxy)pyridin-2-yl)piperidine-4-carboxamide] | 96 |
| N#Cc1ccc(N2CCC(C(=O)Nc3ccc(OC4CCN(CC5CCN(c6ccc(N[C@@H]7CCC(=O)NC7=O)cc6F)CC5)CC4)cn3)CC2)cc1C(F)(F)F [Example 3, (R)-1-(4-cyano-3-(trifluoromethyl)phenyl)-N-(5-((1-((1-(4-((2,6-dioxopiperidin-3-yl)amino)-2-fluorophenyl)piperidin-4-yl)methyl)piperidin-4-yl)oxy)pyridin-2-yl)piperidine-4-carboxamide] | 89 |
| N#Cc1ccc(N2CCC(C(=O)Nc3ccc(OC4CCN(CC5CCN(c6ccc(N[C@H]7CCC(=O)NC7=O)cc6F)CC5)CC4)cn3)CC2)cc1Cl [Example 9, (S)-1-(3-chloro-4-cyanophenyl)-N-(5-((1-((1-(4-((2,6-dioxopiperidin-3-yl)amino)-2-fluorophenyl)piperidin-4-yl)methyl)piperidin-4-yl)oxy)pyridin-2-yl)piperidine-4-carboxamide] | 97 |
